One assay deals with MDA-MB-231. The assay is described as follows: Cancer cell viability assay (MTT), MDA-MB-231. The format is cell-based. Particulars: 10% FBS media. How it is done:
(§1) Breast cancer and glioblastoma cell lines were plated 4000 cells/well in 96-well plates in the presence of 10% FBS media. The following day cells were treated with various concentrations of example compounds (0.1% DMSO final) and incubated for 72 hrs. After the incubation An MTT assay was performed to access cell viability. Percent of viability was determined using DMSO vehicle and no cell (blank) controls.

A further assay has as its system U-87 MG. The assay is described as follows: Cancer cell viability assay (MTT), U-87 MG. The format is cell-based. Particulars: 72 hrs, 10% FBS media. Here is the method: as §1
The test system of a further assay is FaDu cells. The assay is described as follows: Head and neck cancer cell viability assay (Cell-Quanti Blue). Conditions: Homo sapiens, 72 hrs, 10% FBS media containing 25 nM selenite. Format: cell-based. Here is the method: FaDu cells were plated 2000 cells/well in 96-well black optical plates in the presence of 10% FBS media containing 25 nM selenite. The following day cells were treated with various concentrations of the compound of Example 1 (0.1% DMSO final) and incubated for 72 hrs. After the incubation Cell-Quanti Blue reagent was added to each well and incubated for additional 3 hrs. Fluorescence was read ex: 530 nm/em: 590 nm, and percent of viability was determined using DMSO vehicle and no cell (blank) controls.

The test system of a further assay is MDA-MB-468. Briefly: Cancer cell viability assay (MTT), MDA-MB-468. Format: cell-based. Conditions: 10% FBS media. Here is the method: as §1
Assay [1] addresses gluthathione reductase (GR) (Homo sapiens (Human), UniProt P00390). The assay is described as follows: Inhibition of recombinant GR (GSSG assay). Particulars: 2 nM GR, 250 μM NADPH, 15 minutes incubation, 1 mM GSSG. Format: biochemical. How it is done:
(§2) Small molecule inhibition of recombinant thioredoxin reductase 1 (TrxR1) and gluthathione reductase (GR) was examined in 96-well plate format. 30 nM TrxR1 was incubated in the presence of 250 μM NADPH, 0.1 mg/ml BSA, and various concentrations of the compounds (1% DMSO final) in 50 mM Tris (pH 7.5) and 2 mM EDTA buffer for 15 minutes. Following the incubation period, 2 mM DTNB was added to each well and the change in O.D. at 412 nm was followed. Percent activity was determined using DMSO vehicle and no TrxR1 (blank) controls. 2 nM GR was incubated in the presence of 250 μM NADPH, 0.1 mg/ml BSA, and various concentrations of compounds (1% DMSO final) in 50 mM Tris (pH 7.5) and 2 mM EDTA buffer for 15 minutes. Following the incubation period, 1 mM GSSG was added to each well and the change in O.D. at 340 nm was followed. Percent activity was determined using DMSO vehicle and no GR (blank) controls.

The subject of a further assay is MDA-MB-231 cells. The assay is described as follows: Breast cancer cell viability assay (Alamar Blue). The format is cell-based. Particulars: Homo sapiens, 72 hrs, 10% FBS media containing 25 nM selenite. How it is done:
MDA-MB-231 cells were plated 2000 cells/well in 96-well black optical plates in the presence of 10% FBS media containing 25 nM selenite. The following day cells were treated with various concentrations of compounds (0.1% DMSO final) and incubated for 72 hrs. After the incubation Alamar Blue reagent was added to each well and incubated for additional 3 hrs. Fluorescence was read ex: 530 nm/em: 590 nm, and percent of viability was determined using DMSO vehicle and no cell (blank) controls.
Background: Resazurin is reduced to fluorescent resorufin, in cell work by metabolically active cells.

Assay [2] deals with recombinant thioredoxin reductase 1 (TrxR1) (Homo sapiens (Human), UniProt Q16881). The assay is described as follows: Inhibition of recombinant TrxR1 (DTNB assay). The format is biochemical. Conditions: 30 nM TrxR1, 250 μM NADPH, 15 minutes incubation, 2 mM DTNB; read-out: TrxR inhibition. How it is done:
as §2

gluthathione reductase (GR), sequence (P00390 44-522): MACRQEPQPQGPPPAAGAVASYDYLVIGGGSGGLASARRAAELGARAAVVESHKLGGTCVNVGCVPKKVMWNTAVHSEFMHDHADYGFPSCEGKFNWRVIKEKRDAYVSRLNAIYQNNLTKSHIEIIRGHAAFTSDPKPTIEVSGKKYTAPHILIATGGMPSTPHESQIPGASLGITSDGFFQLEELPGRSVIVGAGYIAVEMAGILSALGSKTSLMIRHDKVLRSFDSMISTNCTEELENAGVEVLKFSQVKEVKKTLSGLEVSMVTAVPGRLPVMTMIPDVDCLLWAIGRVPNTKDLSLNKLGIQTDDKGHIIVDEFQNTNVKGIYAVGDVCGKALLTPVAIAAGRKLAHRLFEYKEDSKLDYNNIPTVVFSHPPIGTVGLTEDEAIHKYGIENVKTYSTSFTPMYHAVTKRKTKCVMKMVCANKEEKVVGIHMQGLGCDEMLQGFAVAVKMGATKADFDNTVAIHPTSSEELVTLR
recombinant thioredoxin reductase 1 (TrxR1), sequence (Q16881 151-649): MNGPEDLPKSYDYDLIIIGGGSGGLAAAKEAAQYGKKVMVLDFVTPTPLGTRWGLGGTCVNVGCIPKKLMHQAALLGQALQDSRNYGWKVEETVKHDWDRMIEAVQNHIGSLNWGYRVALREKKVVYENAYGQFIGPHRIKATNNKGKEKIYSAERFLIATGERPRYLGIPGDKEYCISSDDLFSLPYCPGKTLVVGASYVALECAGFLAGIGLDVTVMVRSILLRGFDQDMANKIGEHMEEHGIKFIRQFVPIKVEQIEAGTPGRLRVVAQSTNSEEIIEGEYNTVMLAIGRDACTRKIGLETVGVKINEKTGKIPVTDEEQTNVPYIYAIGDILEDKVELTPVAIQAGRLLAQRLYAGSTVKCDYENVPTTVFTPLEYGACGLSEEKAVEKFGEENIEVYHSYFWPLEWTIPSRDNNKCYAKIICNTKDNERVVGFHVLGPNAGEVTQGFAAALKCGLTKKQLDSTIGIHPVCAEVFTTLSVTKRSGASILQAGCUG

In the case of `COc1ccc([N+](=O)[O-])c(S(=O)(=O)c2ccccn2)n1` [Example 1, 6-Methoxy-3-nitro-2-(pyridin-2-ylsulfonyl)pyridine], the IC50 came out at 2970 nM in the assay with MDA-MB-231 (Homo sapiens, MDA-MB-231, 72 hrs); 8200 nM in the assay with U-87 MG (Homo sapiens, U-87 MG); 1610 nM in the assay on FaDu cells; 4340 nM with MDA-MB-468 (Homo sapiens, MDA-MB-468, 72 hrs); 64200 nM in assay [1]; 3610 nM in the assay on MDA-MB-231 cells. Also, the IC50 in assay [2] stood at 26.8 nM.

Regarding `O=[N+]([O-])c1ccc(Cl)nc1S(=O)(=O)c1ccccn1` [Example 2, 6-Chloro-3-nitro-2-(pyridin-2-ylsulfonyl)pyridine], the IC50 with FaDu cells is 610 nM; in assay [1], 9890 nM; in assay [2], 56.9 nM.

With `CN(C)c1ccc([N+](=O)[O-])c(S(=O)(=O)c2ccccn2)n1` [Example 3, 6-Dimethylamino-3-nitro-2-(pyridin-2-ylsulfonyl)pyridine], the IC50 in the assay on FaDu cells was 2890 nM; in assay [1] it was over 100000 nM; in assay [2] it was 558 nM.

For `COc1ccc([N+](=O)[O-])c(S(=O)(=O)c2ccncc2)n1` [Example 4, 6-methoxy-3-nitro-2-(pyridin-4-ylsulfonyl)pyridine], the IC50 was 11200 nM in assay [1], over 100000 nM in the assay with MDA-MB-231 cells and 0.854 nM in assay [2].

In the case of `COc1ccc([N+](=O)[O-])c(S(=O)(=O)c2ncccn2)n1` [Example 5, 2-((6-methoxy-3-nitropyridin-2-yl)sulfonyl)pyrimidine], the IC50 in assay [1] was over 100000 nM; in the assay on MDA-MB-231 cells, 4540 nM; in assay [2] it was 10.8 nM.

In the case of `COc1ccc([N+](=O)[O-])c(S(=O)(=O)c2ncc[nH]2)n1` [Example 6, 2-((1H-imidazol-2-yl)sulfonyl)-6-methoxy-3-nitropyridine], the figures for the IC50 (in assay [1]; in the assay on MDA-MB-231 cells; in assay [2]) were over 100000 nM, 10800 nM and 3.99 nM, respectively.

As to `COc1ccc([N+](=O)[O-])c(S(=O)(=O)c2nc(C)cs2)n1` [Example 7, 2-((6-methoxy-3-nitropyridin-2-yl)sulfonyl)-4-methylthiazole], the IC50 was 45700 nM in the assay on FaDu cells, over 100000 nM in assay [1], 3090 nM with MDA-MB-231 cells and 6.9 nM in assay [2].

On to `COc1ccc([N+](=O)[O-])c([S+]([O-])c2ccccn2)n1` (stereo not drawn) [Example 8, 6-Methoxy-3-nitro-2-(pyridin-2-ylsufinyl)-pyridine], for which the IC50 in the assay with MDA-MB-231 (72 hrs) was determined as 1020 nM; in the assay on U-87 MG it was 2530 nM; with MDA-MB-468 (72 hrs), 960 nM; in assay [2], 5.5 nM.

The values above are taken from patent publication US11028067B2, “Heteroarylsulfonyl-substituted pyridines and their use in the treatment of cancer” (Oblique Therapeutics AB, priority 2017, dated 2021).
